Experimental findings from paper PMC6315057, “Industrial scale high-throughput screening delivers multiple fast acting macrofilaricides” (Nature Communications, 2019) are described below.

A value given as a limit tells only on which side of the number the result lay.

The subject of assay [1] is Wolbachia within Brugia malayi Mf. Description: B. malayi microfilarial (Mf) in vitro anti-Wolbachia assay (wsp:gst qPCR). As to conditions: Brugia malayi, 144 h; B. malayi Mf, 6 days; read-out: Mf EC50. It counts as cell-based. The protocol:
The Mf were obtained by peritoneal lavage, using a catheter, of gerbils (Meriones unguiculatus) harbouring a patent infection of B. malayi. Mf were purified using a PD-10 desalting column (Fisher), centrifuged (311 RCF for 5 min at room temperature) before the addition of 8000 Mf/well of a 96-well plate (100 µl per well) in complete media consisting of RPMI supplemented with 10% FBS, 1% penicillin streptomycin and 1% amphotericin B. […] Each plate contained doxycycline (5 µM) and DMSO controls. After incubation at 37 °C for 6 days in 5% CO2, visual assessment of Mf motility was performed and scored from 0 to 4 per well (where 0 = no movement and 4 = highly motile). DNA extraction per sample was performed using the QIAmp DNA Mini Kit before quantitative PCR was performed to obtain the ratio of Wolbachia Surface Protein gene copy number (wsp) to Glutathione S-Transferase gene copy number (gst)[36]. The DNA was amplified using the primers as indicated in Supplementary Table 6.
(§1) The wsp:gst ratio data allowed for normalisation of the Wolbachia level to the Mf biomass for each well. The change in wsp:gst for each compound compared to the DMSO control was calculated before normalisation to the onboard doxycycline control to allow for inter-assay comparison.
(Quantitative PCR measures a nucleic acid by following its amplification.)

The test system is the same in assay [2]. Put plainly: Anti-Wolbachia time-kill analysis (timed wash-out) in B. malayi Mf. The class given is cell-based.
From the text: To compare the dynamics of the in vitro phenotype of our hits with existing anti-Wolbachia therapies, we employed a timed wash-out strategy (Fig. 5) at 10x EC50 to establish the anti-Wolbachia time-kill kinetics of the selected chemotypes (1A–5A), using five replicates per compound. […].
Fig. 5 Anti-Wolbachia time-kill analysis. Representatives from the top five clusters (1A–5A), as well as established anti-Wolbachia antibacterials (doxycycline (white), minocycline (grey), rifampicin (black)) were assessed after exposure for 1 day and 2 days before washing and further incubation until the standard 6-day read out. wsp:gst ratio was normalised to the DMSO vehicle control resulting in a read out of mean percentage reduction from control. Doxycycline day 6 treatment represents the result for exposure to doxycycline at 5 µM for a full 6 days (no wash). The box extends from the 25th to the 75th percentile with the median presented by the central line. The whiskers are set at the minimum and maximum therefore indicating the range from five replicates. The cluster number is indicated by colour: cluster 1 (dark blue), 2 (magenta), 3 (teal), 4 (dark gold), and 5 (light blue)
The Mf were obtained by peritoneal lavage, using a catheter, of gerbils (Meriones unguiculatus) harbouring a patent infection of B. malayi. Mf were purified using a PD-10 desalting column (Fisher), centrifuged (311 RCF for 5 min at room temperature) before the addition of 8000 Mf/well of a 96-well plate (100 µl per well) in complete media consisting of RPMI supplemented with 10% FBS, 1% penicillin streptomycin and 1% amphotericin B. Compounds were diluted in complete media and 100 µl was added per well, providing a final concentration of 5 µM, with five replicates per compound. Each plate contained doxycycline (5 µM) and DMSO controls. After incubation at 37 °C for 6 days in 5% CO2, visual assessment of Mf motility was performed and scored from 0 to 4 per well (where 0 = no movement and 4 = highly motile). DNA extraction per sample was performed using the QIAmp DNA Mini Kit before quantitative PCR was performed to obtain the ratio of Wolbachia Surface Protein gene copy number (wsp) to Glutathione S-Transferase gene copy number (gst)[36]. The DNA was amplified using the primers as indicated in Supplementary Table 6.
as §1

In general, EC50 refers to the concentration needed to bring the measured effect to its halfway point. With `C[C@H]1c2cccc(O)c2C(=O)C2=C(O)[C@]3(O)C(=O)C(C(N)=O)=C(O)[C@@H](N(C)C)[C@@H]3[C@@H](O)[C@@H]21` [doxycycline, reference compound], in assay [1], the EC50 is 250 nM. For the same compound, the “Wolbachia reduction after a single day of exposure” value in assay [2] (10x EC50, 1 day exposure, wash, 6-day read out, normalised to vehicle control) is 9%. Also, the “Exposure time to achieve a maximal Wolbachia reduction” value in assay [2] (10x EC50, maximal reduction 70–90% normalised to vehicle control) is above 2 days.
